# pIC50: −log10 of the molar value.
# Assays:
# Type in all cases: functional, cell-based
# HEp-2 = assay: Cytotoxicity against Homo sapiens (human) Hep2 cells after 48 hr by SRB assay; settings: HEp-2, 48 h
# IMR-32 = assay: Cytotoxicity against Homo sapiens (human) IMR32 cells after 48 hr by SRB assay; settings: IMR-32, 48 h
# OVCAR = assay: Cytotoxicity against Homo sapiens (human) OVCAR cells after 48 hr by SRB assay
# PC-3 = assay: Cytotoxicity against Homo sapiens (human) PC3 cells after 48 hr by SRB assay; settings: PC-3, 48 h
SMILES,pIC50 (HEp-2),pIC50 (IMR-32),pIC50 (OVCAR),pIC50 (PC-3)
COc1ccc(C2CC(c3ccco3)=NN2C(C)=O)cc1 (centres undefined),4.81,4.84,4.84,4.81
COc1ccc(OC)c(C2CC(c3ccco3)=NN2C(C)=O)c1 (centres undefined),4.87,4.93,4.96,4.95
CC(=O)N1N=C(c2ccc(Br)cc2)CC1c1cccc(Cl)c1Cl (centres undefined),4.30,4.34,4.40,4.41
CC(=O)N1N=C(c2ccco2)CC1c1ccc(C)cc1 (centres undefined),4.71,4.54,4.95,4.67
CC(=O)N1N=C(c2ccc3ccccc3c2)CC1c1ccccc1[N+](=O)[O-] (centres undefined),5.44,5.47,5.46,5.52
CC(=O)N1N=C(c2ccccc2)CC1c1ccc2c(c1)OCO2 (centres undefined),5.18,5.12,5.06,5.05
CC(=O)N1N=C(c2ccco2)CC1c1cccc(Cl)c1Cl (centres undefined),4.36,4.21,4.09,4.21
CC(=O)N1N=C(c2ccc3ccccc3c2)CC1c1cccc([N+](=O)[O-])c1 (centres undefined),5.41,5.48,5.47,5.53
COc1ccc(C2CC(c3ccccc3)=NN2C(C)=O)cc1OC (centres undefined),5.11,5.35,5.25,5.17
COc1ccc(C2CC(c3cccc4ccccc34)=NN2C(C)=O)c(OC)c1OC (centres undefined),5.89,5.75,5.70,5.91
COc1cc(C2CC(c3ccc4ccccc4c3)=NN2C(C)=O)cc(OC)c1OC (centres undefined),6.28,6.17,6.19,6.24
CC(=O)N1N=C(c2ccco2)CC1c1cccc([N+](=O)[O-])c1 (centres undefined),4.52,4.54,4.63,4.70
CC(=O)N1N=C(c2cccc3ccccc23)CC1c1cccc(Br)c1 (centres undefined),5.01,4.93,4.91,4.92
CC(=O)N1N=C(c2ccco2)CC1c1ccc(Cl)cc1 (centres undefined),4.24,4.41,4.50,4.41
CC(=O)N1N=C(c2ccco2)CC1c1ccc2c(c1)OCO2 (centres undefined),4.70,4.91,4.91,4.78
CC(=O)N1N=C(c2ccc3ccccc3c2)CC1c1ccco1 (centres undefined),4.72,4.96,4.74,4.64
COc1ccc(OC)c(C2CC(c3cccc4ccccc34)=NN2C(C)=O)c1 (centres undefined),5.88,5.80,5.58,5.70
CC(=O)N1N=C(c2ccc3ccccc3c2)CC1c1ccc2ccccc2c1 (centres undefined),6.77,6.72,6.64,6.70
CC(=O)N1N=C(c2cccc([N+](=O)[O-])c2)CC1c1cccc(Cl)c1Cl (centres undefined),4.56,4.60,4.71,4.74
CC(=O)N1N=C(c2ccco2)CC1c1ccc([N+](=O)[O-])cc1 (centres undefined),4.66,4.45,4.64,4.67
COc1ccc(OC)c(C2CC(c3ccc4ccccc4c3)=NN2C(C)=O)c1 (centres undefined),5.96,5.88,5.63,5.78

SMILES,pIC50 (HEp-2),pIC50 (IMR-32),pIC50 (OVCAR),pIC50 (PC-3)
COc1ccc(C2CC(c3cccc4ccccc34)=NN2C(C)=O)cc1 (centres undefined),5.43,5.30,5.17,5.31
COc1ccc(C2CC(c3cccc4ccccc34)=NN2C(C)=O)cc1OC (centres undefined),5.99,5.77,5.57,5.70
CC(=O)N1N=C(c2ccccc2)CC1c1ccccc1 (centres undefined),4.93,4.93,4.63,5.06
CC(=O)N1N=C(c2cccc3ccccc23)CC1c1ccco1 (centres undefined),4.77,5.10,4.89,4.74
CC(=O)N1N=C(c2ccccc2)CC1c1cccc(Cl)c1Cl (centres undefined),4.62,4.37,4.43,4.50
COc1cc(C2CC(c3ccco3)=NN2C(C)=O)ccc1O (centres undefined),5.00,4.63,4.95,4.89
CC(=O)N1N=C(c2ccc3ccccc3c2)CC1c1cccc(Br)c1 (centres undefined),5.06,5.01,4.97,4.96
CC(=O)N1N=C(c2ccco2)CC1c1ccccc1[N+](=O)[O-] (centres undefined),4.32,4.55,4.55,4.72
COc1ccc(C2CC(c3ccc4ccccc4c3)=NN2C(C)=O)cc1 (centres undefined),5.49,5.39,5.24,5.34
COc1cc(C2CC(c3ccco3)=NN2C(C)=O)cc(OC)c1OC (centres undefined),4.67,5.01,4.96,5.02
CC(=O)N1N=C(c2ccc3ccccc3c2)CC1c1ccccc1 (centres undefined),5.08,5.00,4.67,5.13
CC(=O)N1N=C(c2ccc(Br)cc2)CC1c1ccccc1 (centres undefined),4.56,4.65,4.67,4.52
COc1ccc(C2CC(c3ccc(Br)cc3)=NN2C(C)=O)cc1 (centres undefined),4.75,4.80,4.77,4.75
CC(=O)N1N=C(c2cccc3ccccc23)CC1c1cccc([N+](=O)[O-])c1 (centres undefined),5.39,5.40,5.44,5.50
CC(=O)N1N=C(c2ccco2)CC1c1cccc(O)c1 (centres undefined),5.00,4.93,4.88,4.78
COc1ccc(C2CC(c3ccco3)=NN2C(C)=O)cc1OC (centres undefined),5.00,4.95,4.51,4.91
COc1ccc(C2CC(c3ccc4ccccc4c3)=NN2C(C)=O)cc1OC (centres undefined),6.00,5.80,5.61,5.70
CC(=O)N1N=C(c2cccc3ccccc23)CC1c1ccccc1 (centres undefined),4.95,5.11,5.11,5.07
CC(=O)N1N=C(c2ccc(Br)cc2)CC1c1ccc2c(c1)OCO2 (centres undefined),5.06,5.00,4.95,4.96
CC(=O)N1N=C(c2ccc3ccccc3c2)CC1c1cccc(Cl)c1Cl (centres undefined),4.90,4.77,4.82,4.75
CC(=O)N1N=C(c2cccc3ccccc23)CC1c1ccccc1[N+](=O)[O-] (centres undefined),5.40,5.40,5.36,5.45

SMILES,pIC50 (HEp-2),pIC50 (IMR-32),pIC50 (OVCAR),pIC50 (PC-3)
COc1ccc(C2CC(c3cccc([N+](=O)[O-])c3)=NN2C(C)=O)cc1 (centres undefined),5.09,5.18,5.06,5.11
CC(=O)O[C@H]1C(=O)[C@@]2(C)[C@H]([C@H](OC(=O)c3ccccc3)[C@]3(O)C[C@H](OC(=O)[C@H](O)[C@@H](NC(=O)c4ccccc4)c4ccccc4)C(C)=C1C3(C)C)[C@]1(OC(C)=O)CO[C@@H]1C[C@@H]2O [PACLITAXEL],6.96,7.52,7.22,6.92
CC(=O)N1N=C(c2cccc([N+](=O)[O-])c2)CC1c1ccccc1 (centres undefined),5.05,5.10,5.00,5.06
CC(=O)N1N=C(c2cccc3ccccc23)CC1c1cccc(Cl)c1Cl (centres undefined),4.78,4.66,4.72,4.70
CC(=O)N1N=C(c2ccco2)CC1c1ccc(N(C)C)cc1 (centres undefined),4.80,4.79,4.84,4.78
COc1cc(C2CC(c3ccc(Br)cc3)=NN2C(C)=O)cc(OC)c1OC (centres undefined),5.34,5.50,5.32,5.46
COc1cc(C2CC(c3cccc4ccccc34)=NN2C(C)=O)ccc1O (centres undefined),5.95,5.75,5.56,5.67
COc1ccc(C2CC(c3ccc(Br)cc3)=NN2C(C)=O)cc1OC (centres undefined),5.05,5.26,5.25,5.11
CC(=O)N1N=C(c2cccc3ccccc23)CC1c1ccc2ccccc2c1 (centres undefined),6.72,6.57,6.60,6.68
CC(=O)N1N=C(c2cccc3ccccc23)CC1c1ccc2c(c1)OCO2 (centres undefined),5.97,5.72,5.42,5.68
COc1cc(OC)c(C2CC(c3ccco3)=NN2C(C)=O)cc1OC (centres undefined),5.17,5.11,5.17,5.05
COc1cc(C2CC(c3ccccc3)=NN2C(C)=O)ccc1O (centres undefined),5.30,5.24,5.18,5.12
CC(=O)N1N=C(c2cccc3ccccc23)CC1/C=C/c1ccccc1 (centres undefined),4.68,4.57,4.62,4.68
COc1cc(C2CC(c3ccccc3)=NN2C(C)=O)cc(OC)c1OC (centres undefined),5.45,5.47,5.33,5.47
CC(=O)N1N=C(c2cccc([N+](=O)[O-])c2)CC1c1ccc2c(c1)OCO2 (centres undefined),5.12,5.10,5.01,5.09
CC(=O)N1N=C(c2ccccc2)CC1c1ccc(N(C)C)cc1 (centres undefined),4.84,5.02,4.92,5.10
CC(=O)N1N=C(c2ccco2)CC1c1ccc(Br)cc1 (centres undefined),4.29,4.32,4.72,4.38
CC(=O)N1N=C(c2ccco2)CC1c1ccccc1 (centres undefined),4.49,4.54,4.50,4.67
COc1ccc(C2CC(c3ccccc3)=NN2C(C)=O)cc1 (centres undefined),4.97,5.01,4.86,5.12

# — ChEMBL document CHEMBL3045315, “Effect of ring A and ring B substitution on the cytotoxic potential of pyrazole tethered chalcones” (Med Chem Res, 2012)
